The target of test [1] is T1, Bifunctional dihydrofolate reductase-thymidylate synthase (Toxoplasma gondii, UniProt Q07422).
T1 sequence (Q07422 whole entry): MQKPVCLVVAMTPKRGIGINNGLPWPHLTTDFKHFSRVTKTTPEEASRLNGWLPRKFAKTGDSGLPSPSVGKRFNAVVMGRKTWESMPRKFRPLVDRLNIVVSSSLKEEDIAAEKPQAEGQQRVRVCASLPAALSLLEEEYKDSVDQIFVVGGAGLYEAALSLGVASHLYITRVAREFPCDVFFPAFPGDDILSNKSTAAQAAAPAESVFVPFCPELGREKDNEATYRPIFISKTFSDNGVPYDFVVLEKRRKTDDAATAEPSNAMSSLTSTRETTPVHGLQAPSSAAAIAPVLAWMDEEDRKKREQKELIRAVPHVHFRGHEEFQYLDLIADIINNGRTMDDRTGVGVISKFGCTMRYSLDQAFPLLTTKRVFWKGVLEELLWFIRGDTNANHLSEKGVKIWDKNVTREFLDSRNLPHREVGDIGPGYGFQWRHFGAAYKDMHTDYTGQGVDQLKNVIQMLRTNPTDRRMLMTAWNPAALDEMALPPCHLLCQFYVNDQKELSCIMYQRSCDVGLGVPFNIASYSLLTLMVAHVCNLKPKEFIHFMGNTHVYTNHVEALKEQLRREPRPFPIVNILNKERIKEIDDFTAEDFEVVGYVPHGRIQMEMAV
Description: Inhibitory activity against Toxoplasma gondii dihydrofolate reductase

Test [2] has as its target T2, Dihydrofolate reductase (Pneumocystis carinii, UniProt P16184).
T2 sequence (P16184 whole entry): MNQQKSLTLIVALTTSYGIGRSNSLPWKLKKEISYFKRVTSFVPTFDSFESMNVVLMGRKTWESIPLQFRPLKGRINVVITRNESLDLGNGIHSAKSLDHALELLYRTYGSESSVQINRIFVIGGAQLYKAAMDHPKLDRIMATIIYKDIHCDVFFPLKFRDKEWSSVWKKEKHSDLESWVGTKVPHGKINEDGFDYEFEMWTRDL
Description: Inhibitory activity against Pneumocystis carinii dihydrofolate reductase

Another test deals with Toxoplasma gondii. The experiment in a line: Inhibition of Toxoplasma gondii cell growth. Type of test: functional, organism-based.
Test [3] has as its target T3, Dihydrofolate reductase (Rattus norvegicus, UniProt Q920D2).
T3 sequence (Q920D2 whole entry): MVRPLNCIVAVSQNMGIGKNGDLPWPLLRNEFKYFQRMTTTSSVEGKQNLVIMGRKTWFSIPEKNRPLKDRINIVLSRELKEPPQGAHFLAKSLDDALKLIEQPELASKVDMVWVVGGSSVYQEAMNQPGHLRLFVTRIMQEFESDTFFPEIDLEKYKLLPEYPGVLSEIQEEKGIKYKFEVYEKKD
Description: Inhibitory activity against rat liver dihydrofolate reductase

This passage reports IC50 results from ChEMBL document CHEMBL1129525 (J Med Chem, 1996).

As a reminder, the IC50 is the concentration that gives 50% inhibition. Higher therefore signals lower potency.

For the compound `Nc1nc(N)c2nc(CSc3cccc4ccccc34)cnc2n1`, the IC50 stood at 7000 nM in test [1], 4200 nM at Dihydrofolate reductase [2], 3000 nM with Toxoplasma gondii and 8200 nM against Dihydrofolate reductase [3].
For `COc1ccc(OC)c(N(C)Cc2cnc3nc(N)nc(N)c3n2)c1`, the 50% inhibitory concentration (IC50) is 210 nM in test [1], 3900 nM against Dihydrofolate reductase [2], 1600 nM in the test with Toxoplasma gondii and 470 nM on Dihydrofolate reductase [3].
On to `Cc1c(CSc2ccc(Cl)cc2)cnc2nc(N)nc(N)c12`, for which the IC50 in test [1] amounted to 90 nM; against Dihydrofolate reductase [2], 360 nM; with Toxoplasma gondii it was 300 nM; against Dihydrofolate reductase [3], 370 nM.
For `Nc1nc(N)c2cc(CNc3cccc4ccccc34)cnc2n1`, the IC50 is 150 nM in test [1], 260 nM at Dihydrofolate reductase [2], 800 nM in the test on Toxoplasma gondii and 230 nM at Dihydrofolate reductase [3].
Turning to `COc1ccc(OC)c(NCc2cnc3nc(N)nc(N)c3c2C)c1`, the IC50 in test [1] is 14 nM; against Dihydrofolate reductase [2], 11 nM; in the test with Toxoplasma gondii, 200 nM; at Dihydrofolate reductase [3] it was 10 nM.
For `COc1ccc(C(F)(F)F)cc1N(C)Cc1cnc2nc(N)nc(N)c2c1C`, in that order: 38 nM, 93 nM, 200 nM and 230 nM.
For `Nc1nc(N)c2cc(CNc3ccc(Cl)cc3)ccc2n1`, in that order: 75 nM, 600 nM, 10 nM and 73 nM.
For `COc1ccc(SCc2cnc3nc(N)nc(N)c3n2)cc1`, in that order: 14000 nM, 17200 nM, 3000 nM and 10200 nM.
Turning to `Cc1c(CN(C)c2cccc3c2CCCC3)cnc2nc(N)nc(N)c12`, the IC50 in test [1] was 16 nM; against Dihydrofolate reductase [2], 150 nM; in the test with Toxoplasma gondii, 20 nM; on Dihydrofolate reductase [3] it was 140 nM.
Regarding `Cc1cccc(SCc2cnc3nc(N)nc(N)c3c2C)c1`, the IC50 in test [1] was 65 nM; against Dihydrofolate reductase [2], 170 nM; with Toxoplasma gondii, 200 nM; at Dihydrofolate reductase [3], 330 nM.
For `COc1cc(NCc2cnc3nc(N)nc(N)c3c2)cc(OC)c1OC`, the half-inhibitory concentration (IC50) in test [1] is 130 nM; with Toxoplasma gondii, 15000 nM; on Dihydrofolate reductase [3], 810 nM.
As to `COc1cccc(SCc2cnc3nc(N)nc(N)c3n2)c1`, the IC50 in test [1] amounted to 1600 nM; on Dihydrofolate reductase [2], 9900 nM; in the test with Toxoplasma gondii, 5000 nM; against Dihydrofolate reductase [3], 7700 nM.
Turning to `COc1ccc(NCc2cnc3nc(N)nc(N)c3c2C)c(C)c1`, the IC50 in test [1] was found to be 7.2 nM; against Dihydrofolate reductase [2], 170 nM; in the test on Toxoplasma gondii, 600 nM; at Dihydrofolate reductase [3], 29 nM.
On to `COc1ccc(OC)c(NCc2cnc3nc(N)nc(N)c3n2)c1`, for which the IC50 worked out at 6900 nM in test [1], 6200 nM against Dihydrofolate reductase [2], 5000 nM in the test with Toxoplasma gondii and 22900 nM on Dihydrofolate reductase [3].
For the compound `Cc1c(CNc2ccc(Cl)cc2)cnc2nc(N)nc(N)c12`, the IC50 is 32 nM in test [1], 110 nM against Dihydrofolate reductase [2], 150 nM with Toxoplasma gondii and 72 nM against Dihydrofolate reductase [3].
With `Cc1ccc(SCc2cnc3nc(N)nc(N)c3n2)cc1`, the IC50 amounted to 15000 nM in test [1], 5000 nM in the test with Toxoplasma gondii and 26000 nM against Dihydrofolate reductase [3].
In the case of `COc1ccc(OC)c(NCc2ccc3nc(N)nc(N)c3c2)c1`, the IC50 in test [1] came to 140 nM; on Dihydrofolate reductase [2], 750 nM; with Toxoplasma gondii it was 600 nM; against Dihydrofolate reductase [3] it was 460 nM.
With `COc1cc(NCc2cnc3nc(N)nc(N)c3n2)cc(OC)c1OC`, the IC50 in test [1] stood at 1000 nM; against Dihydrofolate reductase [2], 7000 nM; in the test on Toxoplasma gondii, 11000 nM; at Dihydrofolate reductase [3], 1900 nM.
With `COc1ccc(C(F)(F)F)cc1NCc1cnc2nc(N)nc(N)c2n1`, the IC50 in test [1] came to 10600 nM; against Dihydrofolate reductase [2] it was 21000 nM; in the test on Toxoplasma gondii, 2000 nM; against Dihydrofolate reductase [3], 21000 nM.
`COc1cc(NCc2cnc3nc(N)nc(N)c3c2C)cc(OC)c1OC`: the IC50 in the test on Toxoplasma gondii is 1000 nM; against Dihydrofolate reductase [3], 5.4 nM.
Regarding `COc1ccc(N(C)Cc2cnc3nc(N)nc(N)c3c2C)c(OC)c1`, the concentration for half-maximal inhibition (IC50) in test [1] turned out to be 53 nM; against Dihydrofolate reductase [2], 350 nM; in the test on Toxoplasma gondii it was 300 nM; against Dihydrofolate reductase [3] it was 230 nM.
`Cc1c(CNc2cccc3ccccc23)cnc2nc(N)nc(N)c12`: the IC50 turned out to be 240 nM in test [1], 220 nM against Dihydrofolate reductase [2], 12 nM in the test with Toxoplasma gondii and 110 nM on Dihydrofolate reductase [3].
Take `COc1ccc(SCc2cnc3nc(N)nc(N)c3c2C)cc1`: the figures for the IC50 against Dihydrofolate reductase [2] and with Toxoplasma gondii were 560 nM and 300 nM, respectively.
In the case of `COc1cc(NCc2cnc3nc(N)nc(N)c3n2)cc(OC)c1`, the IC50 worked out at 110 nM in test [1], 960 nM against Dihydrofolate reductase [2], 1000 nM with Toxoplasma gondii and 880 nM against Dihydrofolate reductase [3].
For the compound `Cc1ccc(SCc2cnc3nc(N)nc(N)c3c2C)cc1`, the IC50 stood at 57 nM in test [1], 530 nM against Dihydrofolate reductase [2], 300 nM in the test with Toxoplasma gondii and 500 nM at Dihydrofolate reductase [3].
`Nc1nc(N)c2nc(CNc3cccc4ccccc34)cnc2n1`: the IC50 in test [1] is 76 nM; with Toxoplasma gondii, 250 nM; at Dihydrofolate reductase [3], 1260 nM.
Turning to `Nc1nc(N)c2nc(CCc3cccc4ccccc34)cnc2n1`, the IC50 in test [1] came to 820 nM; in the test with Toxoplasma gondii, 1000 nM; at Dihydrofolate reductase [3], 60000 nM.
For the compound `Nc1nc(N)c2nc(CSc3ccccc3)cnc2n1`, the half-maximal inhibitory concentration (IC50) at Dihydrofolate reductase [2] came out at 9500 nM; in the test with Toxoplasma gondii, 10000 nM.
For the compound `COc1ccc(N(C)Cc2cnc3nc(N)nc(N)c3c2C)cc1OC`, the IC50 is 2.9 nM in test [1], 29 nM at Dihydrofolate reductase [2], 150 nM in the test on Toxoplasma gondii and 5.2 nM against Dihydrofolate reductase [3].
In the case of `COc1ccc(NCc2cnc3nc(N)nc(N)c3c2C)c(OC)c1`, the IC50 in test [1] came to 10 nM; against Dihydrofolate reductase [2], 91 nM; with Toxoplasma gondii, 200 nM; against Dihydrofolate reductase [3] it was 61 nM.
Regarding `COc1cccc(C)c1NCc1cnc2nc(N)nc(N)c2c1C`, the IC50 in test [1] came to 100 nM; against Dihydrofolate reductase [2] it was 1000 nM; in the test with Toxoplasma gondii, 300 nM; on Dihydrofolate reductase [3] it was 320 nM.
For the compound `COc1ccc(C(F)(F)F)cc1NCc1cnc2nc(N)nc(N)c2c1C`, the IC50 in test [1] turned out to be 22 nM; against Dihydrofolate reductase [2] it was 44 nM; in the test with Toxoplasma gondii it was 20 nM; against Dihydrofolate reductase [3] it was 20 nM.
For `Cc1c(CNc2cccc3c2CCCC3)cnc2nc(N)nc(N)c12`, the IC50 was determined as 26 nM in test [1], 100 nM against Dihydrofolate reductase [2], 60 nM with Toxoplasma gondii and 130 nM at Dihydrofolate reductase [3].
Regarding `COc1ccc(OC)c(CCc2cnc3nc(N)nc(N)c3c2C)c1`, the IC50 in test [1] was found to be 7.9 nM; at Dihydrofolate reductase [2] it was 340 nM; in the test with Toxoplasma gondii, 100 nM; on Dihydrofolate reductase [3], 770 nM.
As to `Cc1cccc(SCc2cnc3nc(N)nc(N)c3n2)c1`, the IC50 in test [1] was found to be 1800 nM; on Dihydrofolate reductase [2] it was 21200 nM; with Toxoplasma gondii, 4000 nM; at Dihydrofolate reductase [3], 8480 nM.
With `Cc1c(CSc2ccccc2)cnc2nc(N)nc(N)c12`, the IC50 in test [1] is 34 nM; against Dihydrofolate reductase [2] it was 440 nM; in the test with Toxoplasma gondii, 200 nM; at Dihydrofolate reductase [3], 430 nM.
Consider `COc1ccc(OC)c(Cc2cnc3nc(N)nc(N)c3c2C)c1` [PIRITREXIM], for which the IC50 in the test on Toxoplasma gondii was found to be 20 nM. That is a double-digit nanomolar value.
Same read-out and setting: as for `CCc1nc(N)nc(N)c1-c1ccc(Cl)cc1` [PYRIMETHAMINE], the figure is 400 nM.
